Measurements taken from ChEMBL document CHEMBL1201862, “PubChem BioAssay data set” (2004).
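Five concentrations, 48 hours, 96-well plates. GI50 is the concentration that inhibits growth by half.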 Activity calls are given as the source filed them. Cut-off read from the data, not from the text of the source: active = GI50 up to about 1.1 µM and inactive = higher.

Assays:
Test in all cases: growth of human tumour cells (NCI), 48 h
SNB-19 = tested on: SNB-19
CCRF-CEM = tested on: CCRF-CEM
HCT-116 = tested on: HCT-116
NCI-H23 = tested on: NCI-H23
IGROV-1 = tested on: IGROV-1
CAKI-1 = tested on: CAKI-1
HCC 2998 = tested on: HCC 2998
SF-268 = tested on: SF-268
RPMI-8226 = tested on: RPMI-8226
SR = tested on: SR
NCI-H226 = tested on: NCI-H226
RXF 393 = tested on: RXF 393
Malme-3M = tested on: Malme-3M
COLO 205 = tested on: COLO 205
EKVX = tested on: EKVX
SK-MEL-5 = tested on: SK-MEL-5

Measured: GI50

OC(c1cc2ccccc2[nH]1)C(O)(c1cc2ccccc2[nH]1)c1cc2ccccc2[nH]1 (stereo not given)
inactive: SNB-19 27.2 µM | CCRF-CEM 12.3 µM | HCT-116 6.92 µM | NCI-H23 5.83 µM | IGROV-1 8.81 µM | CAKI-1 19.9 µM | HCC 2998 8.09 µM | SF-268 15.6 µM | RPMI-8226 7.11 µM | SR 7.69 µM | NCI-H226 11.8 µM | RXF 393 7.18 µM | Malme-3M 28.4 µM | COLO 205 4.44 µM | EKVX 12.3 µM | SK-MEL-5 11.6 µM

N=C(N)SCc1cn2ccccc2n1
inactive: SNB-19 > 100 µM | CCRF-CEM > 100 µM | HCT-116 > 100 µM | NCI-H23 > 100 µM | CAKI-1 > 100 µM | HCC 2998 > 100 µM | SF-268 > 100 µM | RPMI-8226 > 100 µM | SR > 100 µM | NCI-H226 > 100 µM | Malme-3M > 100 µM | COLO 205 > 100 µM | EKVX > 100 µM | SK-MEL-5 > 100 µM

COc1cc2cc(OC(C)=O)c3cc4c(cc3c2c(OC)c1OC)OCO4
inactive: SNB-19 > 100 µM | CCRF-CEM > 100 µM | HCT-116 > 100 µM | NCI-H23 > 100 µM | IGROV-1 > 100 µM | HCC 2998 > 100 µM | SF-268 > 100 µM | NCI-H226 > 100 µM | RXF 393 > 100 µM | Malme-3M > 100 µM | COLO 205 > 100 µM | EKVX > 100 µM | SK-MEL-5 > 100 µM

CC1(C=O)C(=O)CCC2(C)C3CC(=O)OC3CCC12 (stereo not given)
inactive: SNB-19 > 100 µM | CCRF-CEM > 100 µM | NCI-H23 > 100 µM | IGROV-1 > 100 µM | CAKI-1 > 100 µM | HCC 2998 > 100 µM | SF-268 > 100 µM | RPMI-8226 > 100 µM | RXF 393 > 100 µM | Malme-3M > 100 µM | COLO 205 > 100 µM | EKVX > 100 µM | SK-MEL-5 > 100 µM

O=C(O)c1ccc(C2COc3ccc(Cl)cc3C2)cc1 (stereo not given)
inactive: SNB-19 > 100 µM | CCRF-CEM > 100 µM | HCT-116 > 100 µM | NCI-H23 > 100 µM | IGROV-1 > 100 µM | CAKI-1 > 100 µM | HCC 2998 > 100 µM | SF-268 > 100 µM | RPMI-8226 > 100 µM | SR > 100 µM | NCI-H226 > 100 µM | RXF 393 > 100 µM | Malme-3M > 100 µM | COLO 205 > 100 µM | EKVX > 100 µM | SK-MEL-5 > 100 µM

CC1=N/C(=C\c2ccc(N)cc2)C(=O)N1Nc1nnc(NN2C(=O)/C(=C/c3ccc(N)cc3)N=C2C)c2ccccc12
inactive: SNB-19 33 µM | CCRF-CEM 18.6 µM | HCT-116 > 100 µM | NCI-H23 > 100 µM | IGROV-1 85.9 µM | SF-268 55 µM | RPMI-8226 26.4 µM | SR 30.1 µM | NCI-H226 14.3 µM | RXF 393 22.5 µM | COLO 205 83.6 µM | EKVX > 100 µM | SK-MEL-5 45.2 µM

O=C1/C(=C/c2ccc(Br)cc2)CCC/C1=C\c1ccc(Br)cc1
inactive: SNB-19 18.9 µM | CCRF-CEM 5.11 µM | HCT-116 1.73 µM | NCI-H23 5.69 µM | IGROV-1 15.3 µM | CAKI-1 29.2 µM | HCC 2998 2.31 µM | SF-268 17.2 µM | RPMI-8226 2.04 µM | RXF 393 5.14 µM | Malme-3M 19.6 µM | COLO 205 12.7 µM | EKVX 24.2 µM | SK-MEL-5 13.9 µM

CCC(=O)N1C(=S)SC[C@H]1C(=O)OC
inactive: SNB-19 > 100 µM | CCRF-CEM 69.2 µM | HCT-116 > 100 µM | NCI-H23 > 100 µM | IGROV-1 > 100 µM | CAKI-1 > 100 µM | HCC 2998 > 100 µM | SF-268 > 100 µM | SR > 100 µM | NCI-H226 > 100 µM | RXF 393 > 100 µM | Malme-3M > 100 µM | COLO 205 > 100 µM | EKVX > 100 µM | SK-MEL-5 > 100 µM

CN(C)CCNC(=O)c1cccc2ncc(-c3ccccc3)nc12
inactive: SNB-19 17.1 µM | CCRF-CEM 8.99 µM | HCT-116 4.26 µM | NCI-H23 14.6 µM | IGROV-1 20.5 µM | CAKI-1 6.58 µM | HCC 2998 9.59 µM | SF-268 10.6 µM | SR 1.9 µM | NCI-H226 7.91 µM | RXF 393 5.86 µM | Malme-3M 13 µM | COLO 205 4.11 µM | EKVX 13.3 µM | SK-MEL-5 11.5 µM

CC1C2CC=CC(=O)[C@@]2(C)CCC12OCCO2 (stereo not given in full)
inactive: SNB-19 > 100 µM | CCRF-CEM > 100 µM | HCT-116 > 100 µM | NCI-H23 > 100 µM | IGROV-1 > 100 µM | CAKI-1 > 100 µM | HCC 2998 > 100 µM | SF-268 > 100 µM | SR > 100 µM | NCI-H226 > 100 µM | RXF 393 > 100 µM | Malme-3M 17.5 µM | EKVX > 100 µM | SK-MEL-5 24.6 µM

O=C(CCn1[nH]c(=O)c(Cl)c(Cl)c1=O)NOCCCc1ccccc1
inactive: SNB-19 > 100 µM | CCRF-CEM > 100 µM | HCT-116 > 100 µM | NCI-H23 > 100 µM | IGROV-1 > 100 µM | CAKI-1 > 100 µM | HCC 2998 > 100 µM | SF-268 > 100 µM | RPMI-8226 > 100 µM | SR > 100 µM | NCI-H226 > 100 µM | Malme-3M > 100 µM | EKVX > 100 µM | SK-MEL-5 > 100 µM

COC(=O)C1C(=O)CC2CCCCC21 (stereo not given)
inactive: SNB-19 > 100 µM | CCRF-CEM > 100 µM | HCT-116 > 100 µM | IGROV-1 > 100 µM | CAKI-1 > 100 µM | HCC 2998 > 100 µM | SF-268 > 100 µM | RPMI-8226 > 100 µM | SR > 100 µM | NCI-H226 > 100 µM | RXF 393 > 100 µM | Malme-3M > 100 µM | COLO 205 > 100 µM | SK-MEL-5 > 100 µM

NCCCCCCNCc1cccc2ccccc12
inactive: SNB-19 > 100 µM | CCRF-CEM > 10 µM | HCT-116 95.1 µM | NCI-H23 > 100 µM | IGROV-1 > 100 µM | CAKI-1 > 100 µM | RPMI-8226 > 100 µM | SR 45.3 µM | NCI-H226 > 100 µM | RXF 393 57 µM | Malme-3M 19.1 µM | COLO 205 29.9 µM | EKVX > 100 µM | SK-MEL-5 90.8 µM

O=C1OC2(c3ccccc3Oc3ccccc32)c2ccccc21
inactive: SNB-19 > 100 µM | CCRF-CEM > 100 µM | HCT-116 > 100 µM | NCI-H23 > 100 µM | IGROV-1 > 100 µM | CAKI-1 > 100 µM | HCC 2998 > 100 µM | SF-268 > 100 µM | RPMI-8226 > 100 µM | SR > 100 µM | NCI-H226 > 100 µM | Malme-3M > 100 µM | COLO 205 > 100 µM | EKVX > 100 µM | SK-MEL-5 > 100 µM

CCOP1(=O)C=C(C)C(Cl)=C(C)C1 (stereo not given)
inactive: SNB-19 > 100 µM | CCRF-CEM 17.6 µM | HCT-116 17.2 µM | NCI-H23 22.9 µM | IGROV-1 56.1 µM | HCC 2998 80.2 µM | SF-268 38.9 µM | RPMI-8226 18.9 µM | SR 27.2 µM | NCI-H226 21.4 µM | RXF 393 29.7 µM | COLO 205 12 µM | EKVX > 100 µM | SK-MEL-5 23.1 µM

COc1c(C)c(O)c2c(=O)cc(-c3ccccc3)oc2c1C
inactive: CCRF-CEM > 100 µM | HCT-116 > 100 µM | NCI-H23 > 100 µM | IGROV-1 > 100 µM | CAKI-1 > 100 µM | HCC 2998 > 100 µM | SF-268 > 100 µM | NCI-H226 > 100 µM | Malme-3M > 100 µM | EKVX > 100 µM | SK-MEL-5 > 100 µM

O=C1C=CC(CC(=O)c2ccc3ccccc3c2)O1 (stereo not given)
inactive: SNB-19 32.7 µM | CCRF-CEM 23.2 µM | HCT-116 17.9 µM | NCI-H23 20.7 µM | IGROV-1 29.2 µM | CAKI-1 62.1 µM | HCC 2998 17.2 µM | SF-268 17.6 µM | SR 30.3 µM | RXF 393 20.5 µM | Malme-3M 34.3 µM | COLO 205 18 µM | EKVX > 100 µM | SK-MEL-5 59.3 µM

CN(C)c1n/c(=N/c2ncn[nH]2)ss1
inactive: SNB-19 > 100 µM | CCRF-CEM > 100 µM | HCT-116 > 100 µM | NCI-H23 > 100 µM | IGROV-1 > 100 µM | CAKI-1 > 100 µM | HCC 2998 > 100 µM | SF-268 > 100 µM | RPMI-8226 > 100 µM | SR > 100 µM | NCI-H226 > 100 µM | RXF 393 > 100 µM | Malme-3M > 100 µM | EKVX > 100 µM | SK-MEL-5 > 100 µM

CN(/N=C/c1cccc2cccnc12)c1c([N+](=O)[O-])cc([N+](=O)[O-])cc1[N+](=O)[O-]
inactive: SNB-19 > 100 µM | HCT-116 > 100 µM | NCI-H23 > 100 µM | IGROV-1 > 100 µM | CAKI-1 > 100 µM | HCC 2998 > 100 µM | SF-268 > 100 µM | RPMI-8226 > 100 µM | NCI-H226 > 100 µM | RXF 393 > 100 µM | Malme-3M > 100 µM | COLO 205 > 100 µM | EKVX > 100 µM | SK-MEL-5 64.9 µM

CCCCCCCCCCCCCCCC(=O)OCCOCCOCCOCc1ccccc1
inactive: SNB-19 63.8 µM | HCT-116 > 100 µM | NCI-H23 > 100 µM | IGROV-1 > 100 µM | CAKI-1 80.7 µM | SF-268 91 µM | NCI-H226 > 100 µM | RXF 393 > 100 µM | Malme-3M > 100 µM | COLO 205 > 100 µM | EKVX > 100 µM | SK-MEL-5 > 100 µM
